Results taken from patent US20250161212A1, “LIQUID PHARMACEUTICAL FORMULATION OF OMEPRAZOLE OR ESOMEPRAZOLE” (ALKALOID AD SKOPJE, priority 2022, published 2025).

Test: Stability study of esomeprazole sodium dissolved in DMSO stored at 25° C. (impurities)
Type: physicochemical
Method: Example 9—Stability Study Stability results for esomeprazole sodium dissolved in DMSO stored at 25° C.: • Key: • Imp D: omeprazole impurity D: [drawing 3] • RRT: Relative retention time.

[1] = 1.5 months, second table, Imp-s > 0.02%
[2] = 3 months, second table, Imp-s > 0.02%
[3] = 5 months, second table, Imp-s > 0.02%
[4] = 9 months, second table, Imp-s > 0.02%
[5] = 13 months, second table, Imp-s > 0.02%
[6] = Initial, second table, Imp-s > 0.02%
[7] = in DMSO, 25° C., 1.5 months, first table
[8] = in DMSO, 25° C., 5 months, first table
[9] = in DMSO, 25° C., Initial, first table

COc1ccc2nc([S@@+]([O-])Cc3ncc(C)c(OC)c3C)[nH]c2c1 (single isomer, unassigned) [esomeprazole sodium]
Total impurities (1.5 months, second table): 0.14%
Imp D (omeprazole impurity D) [1]: 0.03%
impurity RRT 1.23 [1]: 0.03%
Total impurities (3 months, second table): 0.17%
Imp D (omeprazole impurity D) [2]: 0.03%
impurity RRT 1.23 [2]: 0.03%
Total impurities (5 months, second table): 0.16%
Imp D (omeprazole impurity D) [3]: 0.03%
impurity RRT 1.17 [3]: 0.03%
Total impurities (9 months, second table): 0.25%
Imp D (omeprazole impurity D) [4]: 0.03%
impurity RRT 0.53 [4]: 0.03%
impurity RRT 1.23 [4]: 0.03%
impurity RRT 1.31 [4]: 0.03%
Total impurities (13 months, second table): 0.36%
Imp D (omeprazole impurity D) [5]: 0.03%
impurity RRT 0.54 [5]: 0.04%
impurity RRT 0.90 [5]: 0.04%
impurity RRT 1.23 [5]: 0.03%
impurity RRT 1.31 [5]: 0.04%
impurity RRT 1.32 [5]: 0.03%
Total impurities (Initial, second table): 0.12%
Imp D (omeprazole impurity D) [6]: 0.03%
impurity RRT 1.23 [6]: 0.03%
Imp D (omeprazole impurity D) [7]: Imp D = 0.03%
Total impurities [7]: Total = 0.14%
impurity RRT 1.23 [7]: RRT 1.23 = 0.03%
Imp D (omeprazole impurity D) [8]: Imp D = 0.03%
Total impurities [8]: Total = 0.15%
impurity RRT 0.57 [8]: RRT 0.57 = 0.02%
impurity RRT 1.14 [8]: RRT 1.14 = 0.02%
impurity RRT 1.17 [8]: RRT 1.17 = 0.03%
impurity RRT 1.23 [8]: RRT 1.23 = 0.02%
Imp D (omeprazole impurity D) [9]: Imp D = 0.03%
Total impurities [9]: Total = 0.12%
impurity RRT 1.19 [9]: RRT 1.19 = 0.02%
impurity RRT 1.23 [9]: RRT 1.23 = 0.03%
